Data published in publication PMC5094555, “Human Mitochondrial Cytochrome b Variants Studied in Yeast: Not All Are Silent Polymorphisms” (Human Mutation, 2016).

What was measured:
[1] = tested on: malaria parasite complex III; set-up: method as in Biagini et al., 2008; details: atovaquone; malaria parasite enzyme; ref Biagini et al., 2008; cited from earlier work
[2] = molecular target: yeast complex III, cytochrome b p.Ser172Gly (Saccharomyces cerevisiae, UniProt P00163, S172G); format: biochemical; details: this work
[3] = tested on: yeast complex III, cytochrome b p.His141Phe; set-up: method as in Fisher and Meunier 2005; details: ref Fisher and Meunier 2005; cited from earlier work
[4] = tested on: yeast complex III, cytochrome b CysCysVal 133-135 ValLeuPro; set-up: method as in Fisher and Meunier 2005; details: ref Fisher and Meunier 2005; cited from earlier work
[5] = molecular target: T1, yeast complex III (wild type) (Saccharomyces cerevisiae, UniProt P00163); set-up: method as in Vallières et al., 2013; details: atovaquone; per nM complex III; yeast enzyme; ref Vallières et al., 2013; read-out: IC50 (midpoint inhibition concentration); cited from earlier work
T1 construct: Mitochondria were added to obtain a final concentration of 5–30 nM of complex III; endogenous in cells; host or cells: mitochondria prepared from S. cerevisiae grown in YPGal (diploid strains)

[6] = tested on: yeast AD1-9 strains (wild type and cytochrome b mutants); assay: Respiratory growth assay with increasing concentration of drug; format: cell-based, Saccharomyces cerevisiae
Protocol: Diploids were used in the experiments, except for monitoring the sensitivity of respiratory growth to atovaquone, where the AD1‐9 series was used.
Yeast strains were grown in 5 ml of YPEth medium with increasing concentration of drug. Cultures were inoculated from 1‐day‐old cultures on YPG to an OD600 nm of 0.2 and incubated at 28°C with vigorous shaking to maintain good aeration. Cell densities measured as OD600 nm were estimated 2 or 3 days after inoculation.

[7] = molecular target: T2, bovine complex III (Bos taurus, UniProt P00157); set-up: method as in Vallières et al., 2013; details: atovaquone; per nM complex III; bovine enzyme; ref Vallières et al., 2013; read-out: IC50 (midpoint inhibition concentration); cited from earlier work
T2 construct: catalytic activity of bovine and yeast complex III, using purified mitochondria; from tissue

[8] = tested on: yeast complex III, cytochrome b p.His141Tyr; set-up: method as in Vallières et al. 2013; details: ref Vallières et al. 2013; cited from earlier work

**Q.** With `O=C1C(O)=C([C@H]2CC[C@H](c3ccc(Cl)cc3)CC2)C(=O)c2ccccc21` [atovaquone] as the compound, how does the IC50 [1] read?
**A.** ~3 nM

**Q.** What about the “atovaquone sensitivity (IC50 mutant/IC50 control)” value (“atovaquone sensitivity” below) [2] of the same compound?
**A.** 1.1

**Q.** What about the “atovaquone sensitivity” value [3] of the same compound?
**A.** 0.4

**Q.** What about the “atovaquone sensitivity” value [4] of the same compound?
**A.** 3.5

**Q.** And the IC50 [5]?
**A.** 4 nM

**Q.** What about the “Sensitivity of respiratory growth to atovaquone” value (“Sensitivity … to atovaquone” below) ([6]; strain HS-p.Ser172Asn (humanised Qo site), versus control strain (Fig. 3C)) of the same compound?
**A.** inhibited at slightly higher doses of atovaquone than the control strain

**Q.** What about the “Sensitivity … to atovaquone” value ([6]; strain HS-p.Ser172Asn versus HS-p.Ser172Asp (Fig. 3C)) of the same compound?
**A.** more sensitive

**Q.** What about the “Sensitivity … to atovaquone” value ([6]; strain HS-p.Ser172Asp (humanised Qo site), versus control strain (Fig. 3C)) of the same compound?
**A.** inhibited at slightly higher doses of atovaquone than the control strain

**Q.** What about the “Sensitivity … to atovaquone” value ([6]; strain p.Ser172Asn, compared with p.Ser172Asp and p.Leu150Phe (Fig. 3B)) of the same compound?
**A.** increased sensitivity compared with p.Ser172Asp

**Q.** What about the “Sensitivity … to atovaquone” value ([6]; strain p.Ser172Gly, compared with p.Ser172Asp and p.Leu150Phe (Fig. 3B)) of the same compound?
**A.** increased sensitivity compared with p.Ser172Asp

**Q.** What about the “Sensitivity … to atovaquone” value ([6]; wt strain, compared with p.Ser172Asp and p.Leu150Phe (Fig. 3B)) of the same compound?
**A.** increased sensitivity compared with p.Ser172Asp

**Q.** What about the IC50 [7] of the same compound?
**A.** 75 nM

**Q.** What about the “atovaquone sensitivity” value [8] of the same compound?
**A.** 0.5
